Assay results published in US20060167037A1, “Combinational radiotherapy and chemotherapy compositions and methods” (priority 2003, published 2006).

Experiments:
Assay type in all cases: cell-based
cancer cells [1] = assay: Synergistic interaction with death receptor ligands and growth receptor inhibitors; details: growth receptor inhibitors eg. of EGF, PDGF, FGF, TNF and IGF receptors
[2] = test system: cancer cell lines to human breast, prostate, ovarian, pancreatic and cervical cancers; assay: Radiosensitisation of cancer cell lines on culture plates (cell viability by CellTiter, apoptosis by Hoechst 33342 dye); details: pre-treatment (1 day and 8 hour) and sequential/post-treatment (−30 min/+4 h) regimes, at 2 and 10 μM
Experimental: The effect of a selection of isoflavonoid compounds on various cancer cell lines subjected to radiotherapy was assessed on culture plates. Cell viability was determined using CellTiter®. Apoptosis was evaluated using Hoechst 33342 dye.
32 and 39 (at 2 and 10 μM).

cancer cells [3] = assay: Synergy with the chemotherapeutics cisplatin and gemcitabine

COc1ccc(C2c3ccc(O)cc3OCC2c2ccc(O)cc2)cc1 (stereo not shown) [compound 32]
synergistic interaction with interferon-gamma, Fas ligand, TRAIL ligand, growth receptor inhibitors (cancer cells [1]): synergistic interaction
radiosensitisation of cancer cell lines subjected to radiotherapy [2]: radiosensitised

Oc1ccc(C2=Cc3ccc(O)cc3OC2)cc1 [Cpd. 12, dehydroequol]
synergistic interaction with interferon-gamma, Fas ligand, TRAIL ligand, growth receptor inhibitors (cancer cells [1]): synergistic interaction
synergy with the effect of chemotherapeutics such as cisplatin and gemcitabine (cancer cells [3]): synergise
radiosensitisation of cancer cell lines subjected to radiotherapy [2]: radiosensitised

COc1ccc(C2c3ccc(O)c(C)c3OCC2c2ccc(O)cc2)cc1 (stereo not shown) [compound 39]
synergistic interaction with interferon-gamma, Fas ligand, TRAIL ligand, growth receptor inhibitors (cancer cells [1]): synergistic interaction
radiosensitisation of cancer cell lines subjected to radiotherapy [2]: radiosensitised
